Measured values as given in the NIST ThermoML archive (doi:10.1016/j.jct.2016.04.014).

Details: Liquid, Vibrating tube method

CCO [ethanol]
Details | mass density [kg/m3]
288.15 K, 100 kPa | 793.7
288.15 K, 1000 kPa | 794.4
288.15 K, 5000 kPa | 797.6
288.15 K, 10000 kPa | 801.5
288.15 K, 15000 kPa | 805.3
288.15 K, 20000 kPa | 808.9
288.15 K, 25000 kPa | 812.4
288.15 K, 30000 kPa | 815.7
288.15 K, 35000 kPa | 819
288.15 K, 40000 kPa | 822.1
288.15 K, 45000 kPa | 825.1
288.15 K, 50000 kPa | 828
288.15 K, 55000 kPa | 830.7
288.15 K, 60000 kPa | 833.3
293.15 K, 100 kPa | 789.4
293.15 K, 1000 kPa | 790.2
293.15 K, 5000 kPa | 793.5
293.15 K, 10000 kPa | 797.4
293.15 K, 15000 kPa | 801.3
293.15 K, 20000 kPa | 805
293.15 K, 25000 kPa | 808.6
293.15 K, 30000 kPa | 812
293.15 K, 35000 kPa | 815.3
293.15 K, 40000 kPa | 818.5
293.15 K, 45000 kPa | 821.5
293.15 K, 50000 kPa | 824.5
293.15 K, 55000 kPa | 827.2
293.15 K, 60000 kPa | 829.9
298.15 K, 100 kPa | 785.2
298.15 K, 1000 kPa | 785.9
298.15 K, 5000 kPa | 789.3
298.15 K, 10000 kPa | 793.4
298.15 K, 15000 kPa | 797.3
298.15 K, 20000 kPa | 801.1
298.15 K, 25000 kPa | 804.8
298.15 K, 30000 kPa | 808.3
298.15 K, 35000 kPa | 811.7
298.15 K, 40000 kPa | 814.9
298.15 K, 45000 kPa | 818
298.15 K, 50000 kPa | 821
298.15 K, 55000 kPa | 823.8
298.15 K, 60000 kPa | 826.5
303.15 K, 100 kPa | 780.9
303.15 K, 101 kPa | 780.83
303.15 K, 1000 kPa | 781.6
303.15 K, 5000 kPa | 785.1
303.15 K, 10000 kPa | 789.3
303.15 K, 15000 kPa | 793.3
303.15 K, 20000 kPa | 797.2
303.15 K, 25000 kPa | 801
303.15 K, 30000 kPa | 804.6
303.15 K, 35000 kPa | 808
303.15 K, 40000 kPa | 811.3
303.15 K, 45000 kPa | 814.5
303.15 K, 50000 kPa | 817.5
303.15 K, 55000 kPa | 820.3
303.15 K, 60000 kPa | 823.1
308.15 K, 100 kPa | 776.5
308.15 K, 1000 kPa | 777.3
308.15 K, 5000 kPa | 780.9
308.15 K, 10000 kPa | 785.2
308.15 K, 15000 kPa | 789.3
308.15 K, 20000 kPa | 793.3
308.15 K, 25000 kPa | 797.1
308.15 K, 30000 kPa | 800.8
308.15 K, 35000 kPa | 804.3
308.15 K, 40000 kPa | 807.7
308.15 K, 45000 kPa | 810.9
308.15 K, 50000 kPa | 814
308.15 K, 55000 kPa | 816.9
308.15 K, 60000 kPa | 819.6
313.15 K, 100 kPa | 772.1
313.15 K, 101 kPa | 772.1
313.15 K, 1000 kPa | 773
313.15 K, 5000 kPa | 776.6
313.15 K, 10000 kPa | 781
313.15 K, 15000 kPa | 785.3
313.15 K, 20000 kPa | 789.4
313.15 K, 25000 kPa | 793.3
313.15 K, 30000 kPa | 797
313.15 K, 35000 kPa | 800.6
313.15 K, 40000 kPa | 804.1
313.15 K, 45000 kPa | 807.4
313.15 K, 50000 kPa | 810.5
313.15 K, 55000 kPa | 813.4
313.15 K, 60000 kPa | 816.2
318.15 K, 100 kPa | 767.7
318.15 K, 1000 kPa | 768.5
318.15 K, 5000 kPa | 772.3
318.15 K, 10000 kPa | 776.8
318.15 K, 15000 kPa | 781.2
318.15 K, 20000 kPa | 785.4
318.15 K, 25000 kPa | 789.4
318.15 K, 30000 kPa | 793.2
318.15 K, 35000 kPa | 796.9
318.15 K, 40000 kPa | 800.4
318.15 K, 45000 kPa | 803.8
318.15 K, 50000 kPa | 806.9
318.15 K, 55000 kPa | 809.9
318.15 K, 60000 kPa | 812.8
323.15 K, 100 kPa | 763.2
323.15 K, 101 kPa | 763.22
323.15 K, 1000 kPa | 764.1
323.15 K, 5000 kPa | 768
323.15 K, 10000 kPa | 772.6
323.15 K, 15000 kPa | 777.1
323.15 K, 20000 kPa | 781.4
323.15 K, 25000 kPa | 785.5
323.15 K, 30000 kPa | 789.4
323.15 K, 35000 kPa | 793.2
323.15 K, 40000 kPa | 796.8
323.15 K, 45000 kPa | 800.2
323.15 K, 50000 kPa | 803.4
323.15 K, 55000 kPa | 806.5
323.15 K, 60000 kPa | 809.3
328.15 K, 100 kPa | 758.7
328.15 K, 1000 kPa | 759.6
328.15 K, 5000 kPa | 763.6
328.15 K, 10000 kPa | 768.3
328.15 K, 15000 kPa | 772.9
328.15 K, 20000 kPa | 777.3
328.15 K, 25000 kPa | 781.6
328.15 K, 30000 kPa | 785.6
328.15 K, 35000 kPa | 789.5
328.15 K, 40000 kPa | 793.1
328.15 K, 45000 kPa | 796.6
328.15 K, 50000 kPa | 799.9
328.15 K, 55000 kPa | 803
328.15 K, 60000 kPa | 805.9
333.15 K, 100 kPa | 754.1
333.15 K, 1000 kPa | 755
333.15 K, 5000 kPa | 759.1
333.15 K, 10000 kPa | 764
333.15 K, 15000 kPa | 768.8
333.15 K, 20000 kPa | 773.3
333.15 K, 25000 kPa | 777.6
333.15 K, 30000 kPa | 781.7
333.15 K, 35000 kPa | 785.7
333.15 K, 40000 kPa | 789.4
333.15 K, 45000 kPa | 792.9
333.15 K, 50000 kPa | 796.3
333.15 K, 55000 kPa | 799.4
333.15 K, 60000 kPa | 802.4
343.15 K, 100 kPa | 744.6
343.15 K, 1000 kPa | 745.6
343.15 K, 5000 kPa | 750
343.15 K, 10000 kPa | 755.2
343.15 K, 15000 kPa | 760.2
343.15 K, 20000 kPa | 765
343.15 K, 25000 kPa | 769.6
343.15 K, 30000 kPa | 773.9
343.15 K, 35000 kPa | 778
343.15 K, 40000 kPa | 781.9
343.15 K, 45000 kPa | 785.6
343.15 K, 50000 kPa | 789.1
343.15 K, 55000 kPa | 792.3
343.15 K, 60000 kPa | 795.3
353.15 K, 1000 kPa | 736
353.15 K, 5000 kPa | 740.6
353.15 K, 10000 kPa | 746.2
353.15 K, 15000 kPa | 751.5
353.15 K, 20000 kPa | 756.5
353.15 K, 25000 kPa | 761.3
353.15 K, 30000 kPa | 765.9
353.15 K, 35000 kPa | 770.2
353.15 K, 40000 kPa | 774.3
353.15 K, 45000 kPa | 778.1
353.15 K, 50000 kPa | 781.7
353.15 K, 55000 kPa | 785.1
353.15 K, 60000 kPa | 788.2
363.15 K, 1000 kPa | 725.9
363.15 K, 5000 kPa | 730.8
363.15 K, 10000 kPa | 736.7
363.15 K, 15000 kPa | 742.4
363.15 K, 20000 kPa | 747.7
363.15 K, 25000 kPa | 752.8
363.15 K, 30000 kPa | 757.7
363.15 K, 35000 kPa | 762.2
363.15 K, 40000 kPa | 766.5
363.15 K, 45000 kPa | 770.5
363.15 K, 50000 kPa | 774.3
363.15 K, 55000 kPa | 777.7
363.15 K, 60000 kPa | 780.9
373.15 K, 1000 kPa | 715.3
373.15 K, 5000 kPa | 720.6
373.15 K, 10000 kPa | 727
373.15 K, 15000 kPa | 733
373.15 K, 20000 kPa | 738.7
373.15 K, 25000 kPa | 744.2
373.15 K, 30000 kPa | 749.3
373.15 K, 35000 kPa | 754.1
373.15 K, 40000 kPa | 758.6
373.15 K, 45000 kPa | 762.8
373.15 K, 50000 kPa | 766.7
373.15 K, 55000 kPa | 770.2
373.15 K, 60000 kPa | 773.5
393.15 K, 1000 kPa | 692.2
393.15 K, 5000 kPa | 698.4
393.15 K, 10000 kPa | 705.8
393.15 K, 15000 kPa | 712.8
393.15 K, 20000 kPa | 719.4
393.15 K, 25000 kPa | 725.6
393.15 K, 30000 kPa | 731.4
393.15 K, 35000 kPa | 736.8
393.15 K, 40000 kPa | 741.8
393.15 K, 45000 kPa | 746.4
393.15 K, 50000 kPa | 750.7
393.15 K, 55000 kPa | 754.5
393.15 K, 60000 kPa | 757.9
413.15 K, 1000 kPa | 666.3
413.15 K, 5000 kPa | 673.6
413.15 K, 10000 kPa | 682.3
413.15 K, 15000 kPa | 690.5
413.15 K, 20000 kPa | 698.1
413.15 K, 25000 kPa | 705.3
413.15 K, 30000 kPa | 712
413.15 K, 35000 kPa | 718.2
413.15 K, 40000 kPa | 723.8
413.15 K, 45000 kPa | 729
413.15 K, 50000 kPa | 733.7
413.15 K, 55000 kPa | 737.9
413.15 K, 60000 kPa | 741.5
